{
  "source": "patent US20240173329A1",
  "about": "“BELVARAFENIB FOR USE IN TREATMENT OF BRAIN CANCERS” (Genentech, Inc., priority 2021, published 2024)",
  "key": {"[1]": {"assay": "Pharmacokinetic profile and brain distribution in mice after oral administration", "format": "in vivo, mice (ICR)", "details": "for Kp / Cmax / Tmax / AUC(0-t) / MRT last / half-life / AUC(0-inf): ICR (CD-1), mouse", "experimental": "Example 1 evaluated pharmacokinetic profile and brain distribution of belvarafenib in mice after oral administration.\nThe mouse strain was ICR (CD-1®) supplied by Orient Bio Inc., Korea.\n(§1) The mice were kept in conventional animal lab cages for 5 days for acclimation before the start of the experiment. The cages were polysulfone 1291H (W425×D266×H185 mm, Techniplast, Italy). Twelve mice were housed in each cage at a temperature of 22±2° C., a relative humidity of 50±20%, a ventilation frequency of 10-15 times/h, a 12 hour light/dark cycle, a light intensity of 150-300 Lux, at least weekly cage replacement. The mice were fed Picolab Rodent diet (5053, Lab Diet, USA) with abundant tap water.\n(§2) The mice were dosed with belvarafenib dihydrochloride, 99.6% purity, that was stored at room temperature. Dosing was based on active ingredient free base and was corrected for assay and water content. The dosing vehicle was DMSO (5%), cremophore EL (5%), and deionized water (90%). Belvarafenib for dosing (28.08 mg) was dissolved in 14.40 mL of the vehicle for a final concentration of 1.950 mg/mL.\nIn a single one day dosing regimen, mice were fasted overnight. The body weight of the mice was measured on the day of treatment, from which dosing volumes were set. […] The mice were fed 4 hours post-dose.\nBlood (0.3 mL) was collected from the retro-orbital plexus at 0.5, 1, 2, 4, 7, 24, 48, and 72 hours after belvarafenib administration. Plasma was obtained by centrifugation at 12,000 rpm for 2 minutes (Eppendorf) and then harvested and stored at −20° C. (Panasonic, MDF-U334-PK) until analysis.\n(§3) After bloodletting of mice at each time point, the brain was collected immediately without perfusion. Brain tissue was washed one to two times with saline to remove surface blood. The brains were then trimmed. The collected brain tissue was accurately weighed and mixed with 4-fold saline based on brain weight (a final dilution factor of 5-fold). Each brain sample was then homogenized and placed in a 1.5 mL tube and stored at −20° C. (Panasonic, MDF-U334-PK) until analysis.\n(§4) Plasma and brain of untreated animals were similarly obtained for use as a blank matrix.\n(§5) Plasma and brain concentrations of belvarafenib determined by analysis using LC-MS/MS (Waters UPLC H-Class/Xevo TQ (Waters USA)).\n(§6) Pharmacokinetic parameters of belvarafenib were calculated from plasma and brain concentration-time data by a non-compartmental method using Phoenix™ WinNonlin 8.1 (Certara, USA). The peak plasma and brain concentration (Cmax) and the corresponding time (Tmax) were directly obtained from the raw data. The area under the plasma curve (AUClast) was obtained by linear-log trapezoidal summation. Other PK parameters such as AUC from dosing time extrapolated to infinity (AUCinf), half-life (t1/2) and mean residence time (MTRlast) were calculated using WinNonlin. The plasma and brain concentrations of belvarafenib were presented as MEAN±S.D. The brain to plasma (B/P) ratio of Belvarafenib was calculated by dividing AUClast in the brain by AUClast in the plasma."}, "[2]": {"assay": "Pharmacokinetic profile and brain distribution in rats after oral administration", "format": "in vivo, rats (SD)", "details": "for Kp / Cmax / Tmax / AUC(0-t) / MRT last / half-life / AUC(0-inf): rat", "experimental": "Example 2 evaluated pharmacokinetic profile and brain distribution of belvarafenib in rats after oral administration.\nThe rat strain was SD supplied by Orient Bio Inc., Korea.\nas §1, with “The rats were kept” for “The mice were kept”, “Techniplast, Italy). Three rats were housed” for “Techniplast, Italy). Twelve mice were housed”\nas §2, with “rats” for “mice”, “(10%), PEG 400 (50%),” for “(5%), cremophore EL (5%),”, “(40%).” for “(90%).”, “(169.51” for “(28.08”, “86.93” for “14.40”\nIn a single one day dosing regimen, rats were fasted overnight. The body weight of the rats was measured on the day of treatment, from which dosing volumes were set. […] The rats were fed 4 hours post-dose.\nBlood (0.3 mL) was collected from the abdominal artery at 0.5, 1, 2, 4, 7, 24, 48, and 72 hours after belvarafenib administration. Plasma was obtained by centrifugation at 12,000 rpm for 2 minutes (Eppendorf) and then harvested and stored at −20° C. (Panasonic, MDF-U334-PK) until analysis.\nas §3, with “rats” for “mice”\nas §4, §5, §6"}, "[3]": {"target": "discoidin domain receptor tyrosine kinase 1 (DDR1) (Homo sapiens, UniProt Q08345)", "sequence (Q08345 19-913, species assumed)": "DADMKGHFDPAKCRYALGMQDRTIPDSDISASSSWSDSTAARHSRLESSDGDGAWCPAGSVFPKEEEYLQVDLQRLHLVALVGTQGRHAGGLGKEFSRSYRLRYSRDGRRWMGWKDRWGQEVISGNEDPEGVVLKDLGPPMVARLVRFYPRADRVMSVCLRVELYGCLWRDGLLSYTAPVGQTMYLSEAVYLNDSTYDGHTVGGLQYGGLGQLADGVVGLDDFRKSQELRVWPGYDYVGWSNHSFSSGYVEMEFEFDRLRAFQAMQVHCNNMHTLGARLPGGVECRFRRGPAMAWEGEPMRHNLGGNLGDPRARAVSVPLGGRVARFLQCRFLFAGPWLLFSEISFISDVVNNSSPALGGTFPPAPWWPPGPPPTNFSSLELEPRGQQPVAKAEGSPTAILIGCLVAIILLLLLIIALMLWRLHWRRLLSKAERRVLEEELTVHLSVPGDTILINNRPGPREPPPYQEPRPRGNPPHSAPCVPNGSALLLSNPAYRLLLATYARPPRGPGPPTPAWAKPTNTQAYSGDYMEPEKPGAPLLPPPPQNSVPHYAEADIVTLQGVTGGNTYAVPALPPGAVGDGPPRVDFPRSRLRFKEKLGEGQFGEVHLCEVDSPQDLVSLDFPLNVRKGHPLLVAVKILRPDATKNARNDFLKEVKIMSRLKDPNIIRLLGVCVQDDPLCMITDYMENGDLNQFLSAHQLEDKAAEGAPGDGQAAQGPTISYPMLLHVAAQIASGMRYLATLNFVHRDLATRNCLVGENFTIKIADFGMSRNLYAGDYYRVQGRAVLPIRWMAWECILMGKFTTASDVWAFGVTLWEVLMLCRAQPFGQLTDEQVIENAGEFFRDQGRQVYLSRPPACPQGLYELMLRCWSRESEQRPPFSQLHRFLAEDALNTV", "assay": "panel of 189 kinase assays", "format": "biochemical"}, "[4]": {"details": "single oral 15 mg/kg, pre- and post-dosing periods"}, "[5]": {"details": "SD (Sprague-Dawley), oral 30 mg/kg, brain"}, "[6]": {"details": "SD (Sprague-Dawley), oral 30 mg/kg, plasma"}, "[7]": {"details": "male, SD, oral 15 mg/kg, plasma"}},
  "data": [
    {"smiles": "Cc1ccc2c(Nc3cccc(Cl)c3F)nccc2c1NC(=O)c1csc2c(N)ncnc12", "note": "[Belvarafenib, 4-amino-N-(1-((3-chloro-2-fluorophenyl)amino)-6-methylisoquinolin-5-yl)thieno[3,2-d]pyrimidine-7-carboxamide]", "values": [
      {"measurement": "Kp", "setting": "[1]; oral 30 mg/kg, AUClast brain / AUClast plasma, read-out: B/P ratio", "value": 0.8},
      {"measurement": "Cmax", "setting": "[1]; oral 30 mg/kg, brain", "value": 6100, "unit": "ng/g"},
      {"measurement": "Tmax", "setting": "[1]; oral 30 mg/kg, brain", "value": 7, "unit": "h"},
      {"measurement": "AUC(0-t)", "setting": "[1]; oral 30 mg/kg, plasma", "value": 133000, "unit": "ng·h/mL"},
      {"measurement": "Cmax", "setting": "[1]; oral 30 mg/kg, plasma", "value": 6210, "unit": "ng/mL"},
      {"measurement": "Tmax", "setting": "[1]; oral 30 mg/kg, plasma", "value": 7, "unit": "h"},
      {"measurement": "Kp", "setting": "[1]; male, brain/plasma, oral, 15 mg/kg, read-out: B/P", "value": 0.93},
      {"measurement": "MRT last", "setting": "[1]; male, in vivo, oral 15 mg/kg, plasma", "value": 14.3, "unit": "h"},
      {"measurement": "Kp", "setting": "[1]; male, oral 15 mg/kg, AUClast brain / AUClast plasma, read-out: B/P ratio", "value": 0.929},
      {"measurement": "Cmax", "setting": "[1]; male, oral 15 mg/kg, brain", "value": 5240, "unit": "ng/g"},
      {"measurement": "MRT last", "setting": "[1]; male, oral 15 mg/kg, brain", "value": 11.8, "unit": "h"},
      {"measurement": "Tmax", "setting": "[1]; male, oral 15 mg/kg, brain", "value": 7, "unit": "h"},
      {"measurement": "half-life", "setting": "[1]; male, oral 15 mg/kg, brain", "value": 6.3, "unit": "h"},
      {"measurement": "AUC(0-inf)", "setting": "[1]; male, oral 15 mg/kg, plasma", "value": 84300, "unit": "ng·h/mL"},
      {"measurement": "AUC(0-t)", "setting": "[1]; male, oral 15 mg/kg, plasma", "value": 84300, "unit": "ng·h/mL"},
      {"measurement": "Cmax", "setting": "[1]; male, oral 15 mg/kg, plasma", "value": 4780, "unit": "ng/mL"},
      {"measurement": "Tmax", "setting": "[1]; male, oral 15 mg/kg, plasma", "value": 4, "unit": "h"},
      {"measurement": "half-life", "setting": "[1]; male, oral 15 mg/kg, plasma", "value": 6.6, "unit": "h"},
      {"measurement": "AUC(0-inf)", "setting": "[1]; male, oral 30 mg/kg, plasma", "value": 133000, "unit": "ng·h/mL"},
      {"measurement": "AUC(0-t)", "setting": "[1]; male, oral 30 mg/kg, plasma", "value": 133000, "unit": "ng·h/mL"},
      {"measurement": "AUCinf", "setting": "[1]; oral 15 mg/kg, brain", "value": 78297.5, "unit": "ng·h/g"},
      {"measurement": "AUClast", "setting": "[1]; oral 15 mg/kg, brain", "value": 78259.6, "unit": "ng·h/g"},
      {"measurement": "AUCinf", "setting": "[1]; oral 30 mg/kg, brain", "value": 100848.0, "unit": "ng·h/g"},
      {"measurement": "AUClast", "setting": "[1]; oral 30 mg/kg, brain", "value": 100735.8, "unit": "ng·h/g"},
      {"measurement": "general clinical signs", "setting": "[1]; [4]", "value": "No clinical signs were observed"},
      {"measurement": "Kp", "setting": "[2]; SD (Sprague-Dawley), oral 30 mg/kg, AUClast brain / AUClast plasma, read-out: B/P ratio", "value": 1.2},
      {"measurement": "Cmax", "setting": "[2]; [5]", "value": 4880, "unit": "ng/g"},
      {"measurement": "Tmax", "setting": "[2]; [5]", "value": 7, "unit": "h"},
      {"measurement": "AUC(0-t)", "setting": "[2]; [6]", "value": 98000, "unit": "ng·h/mL"},
      {"measurement": "Cmax", "setting": "[2]; [6]", "value": 4150, "unit": "ng/mL"},
      {"measurement": "Tmax", "setting": "[2]; [6]", "value": 7, "unit": "h"},
      {"measurement": "Kp", "setting": "[2]; SD, oral 30 mg/kg, AUClast brain / AUClast plasma, read-out: B/P ratio", "value": 1.2},
      {"measurement": "Tmax", "setting": "[2]; SD, oral 30 mg/kg, brain", "value": 4, "unit": "h"},
      {"measurement": "Kp", "setting": "[2]; male, SD, brain/plasma, oral, 15 mg/kg, read-out: B/P", "value": 1.38},
      {"measurement": "Kp", "setting": "[2]; male, SD, oral 15 mg/kg, AUClast brain / AUClast plasma, read-out: B/P ratio", "value": 1.38},
      {"measurement": "Cmax", "setting": "[2]; male, SD, oral 15 mg/kg, brain", "value": 3910, "unit": "ng/g"},
      {"measurement": "MRT last", "setting": "[2]; male, SD, oral 15 mg/kg, brain", "value": 15.5, "unit": "h"},
      {"measurement": "Tmax", "setting": "[2]; male, SD, oral 15 mg/kg, brain", "value": 7, "unit": "h"},
      {"measurement": "half-life", "setting": "[2]; male, SD, oral 15 mg/kg, brain", "value": 9, "unit": "h"},
      {"measurement": "AUC(0-inf)", "setting": "[2]; [7]", "value": 50600, "unit": "ng·h/mL"},
      {"measurement": "AUC(0-t)", "setting": "[2]; [7]", "value": 49400, "unit": "ng·h/mL"},
      {"measurement": "Cmax", "setting": "[2]; [7]", "value": 2130, "unit": "ng/mL"},
      {"measurement": "MRT last", "setting": "[2]; [7]", "value": 18, "unit": "h"},
      {"measurement": "Tmax", "setting": "[2]; [7]", "value": 4, "unit": "h"},
      {"measurement": "half-life", "setting": "[2]; [7]", "value": 12.5, "unit": "h"},
      {"measurement": "AUC(0-inf)", "setting": "[2]; male, SD, oral 30 mg/kg, plasma", "value": 100000, "unit": "ng·h/mL"},
      {"measurement": "AUCinf", "setting": "[2]; oral 15 mg/kg, brain", "value": 68350.0, "unit": "ng·h/g"},
      {"measurement": "AUClast", "setting": "[2]; oral 15 mg/kg, brain", "value": 67954.7, "unit": "ng·h/g"},
      {"measurement": "AUCinf", "setting": "[2]; oral 30 mg/kg, brain", "value": 115222.3, "unit": "ng·h/g"},
      {"measurement": "AUClast", "setting": "[2]; oral 30 mg/kg, brain", "value": 113670.1, "unit": "ng·h/g"},
      {"measurement": "general clinical signs", "setting": "[2]; [4]", "value": "No clinical signs were observed"},
      {"measurement": "inhibition at 1 µM", "setting": "[3]", "value": "> 90", "unit": "%"}
    ]}
  ]
}
